Measurements as given in paper PMC12091851, “Replacing a Cereblon Ligand by a DDB1 and CUL4 Associated Factor 11 (DCAF11) Recruiter Converts a Selective Histone Deacetylase 6 PROTAC into a Pan‐Degrader” (Chemmedchem, 2025).
Where two headings read alike, the source gives them in different places.

Experiments:
MM.1S cells [1] = assay: CellTiter-Glo cell viability assay; type: cell-based, human; conditions: 72 h; for EC50: Homo sapiens, MM1.S
Protocol: For this purpose, the dilution series were prepared in 200-fold concentration in DMSO and further diluted to 10-fold concentration in medium. The final DMSO concentration was 0.5%. The toxicity of compounds was determined after 72 h using the CellTiter-Glo 2.0 Cell Viability Assay (Promega, Madison, WI, USA, #G9242) according to the manufacturer´s protocol. Subsequently, the luminescence was measured using a Tecan Spark (Tecan Group AG, Maennedorf, Swiss) and the half maximal effective concentration (EC50) was determined by plotting dose response curves and nonlinear regression with GraphPad Prism (GraphPad Software, San Diego, CA, USA). […] Cellular HDAC Inhibition Assay […] with minor changes. […] The DMSO-stock solutions were used to perform a serial dilution in DMSO. […] 10 µL of the substrate solution was added and incubated for 3 h under cell culture conditions. […] S8

HDAC1 = HDAC1 (Homo sapiens, UniProt Q13547); assay: Simple Western immunoassay, HDAC1 levels in MM.1S cell lysates; type: cell-based; parameters: endogenous in cells; host or cells: MM.1S; conditions: MM.1S cells, 10 μM, 24 h
Sequence of HDAC1 (Q13547 whole entry): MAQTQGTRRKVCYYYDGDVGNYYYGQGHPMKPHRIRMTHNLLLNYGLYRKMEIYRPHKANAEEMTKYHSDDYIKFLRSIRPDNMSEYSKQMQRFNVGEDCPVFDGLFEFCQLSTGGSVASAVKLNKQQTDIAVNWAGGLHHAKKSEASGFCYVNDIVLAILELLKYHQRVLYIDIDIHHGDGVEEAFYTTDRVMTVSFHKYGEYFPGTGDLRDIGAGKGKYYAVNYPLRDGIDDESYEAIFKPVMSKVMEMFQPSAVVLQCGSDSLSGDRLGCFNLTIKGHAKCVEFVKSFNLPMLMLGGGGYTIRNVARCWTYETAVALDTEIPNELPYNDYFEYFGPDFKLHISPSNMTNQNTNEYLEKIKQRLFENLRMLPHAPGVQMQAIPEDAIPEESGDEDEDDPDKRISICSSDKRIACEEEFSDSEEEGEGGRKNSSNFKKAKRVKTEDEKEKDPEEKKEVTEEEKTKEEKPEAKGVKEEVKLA
Protocol: Figure 3 Initial degradation screening of HDAC1 and 6 by DCAF11‐recruiting PROTACs by Simple Western™ immunoassay analysis of MM.1S cell lysates. MM.1S cells were treated with the indicated compound (10 μM) or vehicle (DMSO) for 24 h. […] Bottom: Representative images from a total of n=3 biological replicates, labeled with spacer type; w/o: without spacer.
2. Biological Experiments
No unexpected or unusually high safety hazards were encountered.
The human multiple myeloma cell line MM.1S (CRL-2974) was obtained from American Type Culture Collection (ATCC, Manassas, VA, USA). The semi-adherent cells were cultivated in RPMI 1640 medium (Catalog#21875-034, Gibco, ThermoFisher Scientific Inc., Waltham, MA, USA) supplemented with 10% FBS (PAN Biotech GmbH; Aidenbach, Germany), 100 IU/mL penicil lin, 0.1 mg/mL streptomycin (PAN Biotech GmbH) and 1 mM sodium pyruvate (ThermoFisher Scientific Inc.). […]
(PAN Biotech GmbH). All cells were cultured at 37 °C in a 5% CO2 atmosphere. Incubation times, as part of assay protocols, were performed under these conditions as well. The semi-adherent MM.1S were detached mechanically by using a cell scraper and the adhered […] were trypsinased by trypsin/EDTA (0.05%/0.02% in DPBS, PAN Biotech GmbH) whereas the U-87MG were detached by […]
2.2. Simple Western™ Immunoassay
For the cell lysates, MM.1S (0.5 × 10^6 cells/mL) or U-87MG (0.18 × 10^6 cells/mL) cells were seeded and incubated with the indicated concentration of compound or vehicle (DMSO) for the given time. The adherent cells were cultured for 24 h under cell culture conditions for attachment before treatment. Cell lysis was performed with Cell Extraction Buffer (10 mM Tris, pH 7.4, 100 mM NaCl, 1 mM EDTA, […]
SDS, 0.5% deoxycholate; Catalog# FNN0011, Thermo Fisher Scientific Inc., Waltham, MA, USA) with addition of Halt Protease Inhibitor Cocktail (100×) (Catalog# 78429, Life Technologies GmbH, Carlsbad, CA, USA) and phenylmethanesulfonyl fluoride (Catalog# 10837091001, Sigma-Aldrich, St.
Louis, MO, USA) according to manufacturer´s instructions. Protein content was determined by Pierce™ BCA Protein Assay Kit (Catalog# 23225, Thermo Fisher Scientific Inc.) according to manufacturer´s guidelines. Cell lysates were diluted to a final concentration of 1 mg/mL and denatured according to manufacturer’s guidelines. Anti-HDAC1 (Catalog# 5356S, Cell Signaling Technology, Denver, MA, USA), anti-HDAC6 (Catalog#7558S, Cell Signaling Technology) and anti-GAPDH (Catalog# 2118S, […]
Fluorescence Separation 8x25 Capillary Cartridges (Catalog# SM-FL004-1, Protein Simple, Bio-Techne, Minneapolis, MN, USA) were used for separation and the Anti-Mouse Detection Module (Catalog# DM-002, Protein Simple) was used for detection with addition of 20x Anti-Rabbit HRP […]
Conjugate (Catalog# 043-426, Protein Simple) according to manufacturer´s instructions. The assay was performed with the Jess Simple Western System (catalog# 004-650, Protein Simple), according to manufacturer´s settings. Evaluation and quantification was performed with the compass software (6.2.0, Protein Simple). GraphPad Prism (GraphPad Software, San Diego, CA, USA) was used for normalization, statistical analysis and bar graph creation. Significance testing was performed with a one-way analysis of variance (ANOVA). […]
of each mean compared to a reference mean value. […]
AMC (Catalog# 233691-67-3, BLD pharma) was prepared with and without IGEPAL CA-630 (0.5%, Catalog# J61055, Alfa Aesar). 10 µL of the substrate solution was added and incubated for 3 h under cell culture conditions. The reaction was stopped with 100 µL of stop solution (50 mM Tris-HCl, […]
Trypsin) and incubated for 1.5 h under cell culture conditions. The fluorescence signal was measured by a FLUOstar OPTIMA microplate reader (BMG labtech, Ortenburg, Germany) at excitation of λ = 355 nm and emission of λ = 460 nm. All Compounds were tested in two independent experiments in duplicates and IC50 was determined by nonlinear regression with GraphPad Prim.

MM.1S cells [2] = assay: Cell cycle analysis by PI staining and flow cytometry; type: cell-based, human; conditions: 10 μM, 48 h
Protocol: GraphPad Prism (GraphPad Software). […]
Biotech), resuspended in 1 mL EtOH/D PBS (7/3 v/v), and fixed for 30 min at 4 °C. The samples were rehydrated with DPBS and treated with 5 µg /mL RNAse ( Catalog# EN0531 , ThermoFisher Scientific Inc.) for 15 min at room temperature. The staining was performed with 3 µM propidium iodide (in DPBS) for 15 min at room temperature and analyzed by flow cytometry ( Guava easyCyteTM, Luminex, […]
Lakes, NJ, USA), using the Watson Pragmatic algorithm.[6] GraphPad Prism (GraphPad Software) was used for normalization, statistical analysis, and bar graph creation. Significance testing was performed with a one-way analysis of variance (ANOVA). Dunnett’s post-hoc test was employed to obtain […]
Final DMSO concentration was 0.1%.
Staining was performed with
Fluorescence was measured by flow cytometry (Guava® easyCyteTM, Luminex, Austin, Texas). GraphPad Prism (GraphPad Software) was used for normalization, statistical analysis, and bar graph creation. Significance testing was performed with a one-way analysis of variance (ANOVA).
Subsequently, cells were harvested and […]
After 30 minutes of incubation at […]
Dunnett’s post-hoc test was employed

MDA-MB-231 cells = assay: Clonogenic growth assay; type: cell-based, human; conditions: 10 μM for 48 h, nine days of growth
Protocol: Figure 9 Clonogenic growth assay of DCAF11‐recruiting PROTACs. MDA‐MB‐231 cells were treated with 10 μM of the respective compound or vehicle (DMSO) for 48 hours. (A) Representative images of crystal violet stained colonies after nine days of growth. (B) Quantification of counted colonies, presented as mean ± standard deviation of three biological replicates, each performed in triplicates. Significance of quantification compared to vehicle: ns=p≥0.05; **=p≤0.01 and ***=p≤0.001. […]
Subsequently, cells were harvested and
plated in 6-well plates at a density of 750 cells per well in triplicates. The cell culture medium was
changed after five days. Nine days after plating, the colonies were carefully washed with 500 µL DPBS
and stained with 500 µL crystal violet solution (0.5% in methanol). After 30 minutes of incubation at
room temperature, the wells were gently rinsed with deionized water. After counting the formed
colonies, GraphPad Prism (GraphPad Software) was used for bar graph creation. Significance testing
was performed with a one-way analysis of variance (ANOVA). Dunnett’s post-hoc test was employed
to obtain significance levels of each mean compared to a reference mean value.

[3] = MM.1S cells, n.e.: no effect (≤25% effect up to 50 μM), read-out: EC50 antiproliferative activity
[4] = MM.1S cells, n.e.: no effect (≤25% effect up to 50 μM)

SMILES | EC50 (MM.1S cells [1]; [3]) | also measured
O=C(CCCCCCNC(=O)c1ccc(NC(=O)CN(C(=O)CCl)C(C(=O)NCc2ccccc2)c2ccc(Cl)c(Cl)c2)cc1)NO (stereo not shown) [Compound 1f] | 19 ± 3 µM | –
O=C(CCCCCCNC(=O)c1ccc(NC(=O)CCOCCOCCOCCOCCN(C(=O)CCl)C(C(=O)NCc2ccccc2)c2ccc(Cl)c(Cl)c2)cc1)NO (stereo not shown) [Compound 1e] | 7.3 ± 0.5 µM | reduction of HDAC1 levels (HDAC1): 51%
O=C(CCCCCCNC(=O)c1cnc(N(c2ccccc2)c2ccccc2)nc1)NO [Ricolinostat, ricolinostat, reference compound] | – | EC50 (MM.1S cells [1]; read-out: EC50 MM.1S): 3 ± 0.6 µM; effect on cell cycle phases (MM.1S cells [2]): stronger effects on the different phases of the cell cycle; reduction of colonies (clonogenic growth) (MDA-MB-231 cells): less pronounced and not significant
O=C(CCCCCCNC(=O)c1ccc(NC(=O)CCOCCOCCOCCN(C(=O)CCl)C(C(=O)NCc2ccccc2)c2ccc(Cl)c(Cl)c2)cc1)NO (stereo not shown) [Compound 1d] | 6.9 ± 0.6 µM | –
O=C(CCCCCCNC(=O)c1ccc(NC(=O)[C@H]2CC[C@H](CN(C(=O)CCl)C(C(=O)NCc3ccccc3)c3ccc(Cl)c(Cl)c3)CC2)cc1)NO (stereo partly shown) [Compound 1b] | 18 ± 3 µM | EC50 antiproliferative activity (MM.1S cells [1]; [4]): diminished antiproliferative activity
O=C(CCCCCCNC(=O)c1ccc(NC(=O)CCOCCOCCN(C(=O)CCl)C(C(=O)NCc2ccccc2)c2ccc(Cl)c(Cl)c2)cc1)NO (stereo not shown) [Compound 1c] | 6.2 ± 0.7 µM | –
O=C(CCCCCCNC(=O)c1ccc(NC(=O)CCCCCN(C(=O)CCl)C(C(=O)NCc2ccccc2)c2ccc(Cl)c(Cl)c2)cc1)NO (stereo not shown) [Compound 1h] | 18 ± 7 µM | reduction of HDAC1 levels (HDAC1): did not reduce HDAC1 levels
O=C(CCCCCCNC(=O)c1ccc(NC(=O)c2ccc(N(C(=O)CCl)C(C(=O)NCc3ccccc3)c3ccc(Cl)c(Cl)c3)cc2)cc1)NO (stereo not shown) [Compound 1a] | 34 ± 6 µM | EC50 antiproliferative activity (MM.1S cells [1]; [4]): diminished antiproliferative activity
O=C(CCCCCCNC(=O)c1ccc(NC(=O)CCCN(C(=O)CCl)C(C(=O)NCc2ccccc2)c2ccc(Cl)c(Cl)c2)cc1)NO (stereo not shown) [Compound 1g] | 16 ± 2 µM | –
O=C(CCCCCCNC(=O)c1ccc(NC(=O)CCCCCCCN(C(=O)CCl)C(C(=O)NCc2ccccc2)c2ccc(Cl)c(Cl)c2)cc1)NO (stereo not shown) [Compound 1i] | 12 ± 2 µM | –
